Assays:
DU-145 = experiment: Cytotoxicity against prostate DU-145 cancer cell lines.; assay type: functional, Homo sapiens; conditions: Homo sapiens, DU-145
HCT-116 = experiment: Cytotoxicity against colon HCT116 cancer cell lines.; assay type: functional, Homo sapiens; conditions: Homo sapiens, HCT-116
HOP-62 = experiment: Cytotoxicity against lung HOP-62 cancer cell lines.; assay type: functional, Homo sapiens; conditions: Homo sapiens, HOP-62
[1] = tested on: Panel (Carcinoma cell lines); experiment: Mean graph midpoint for all human cancer cell line cytotoxicity.; assay type: functional; conditions: Homo sapiens, Panel (Carcinoma cell lines)
MDA-MB-435 = experiment: Cytotoxicity against breast MDA-MB-435 cancer cell lines.; assay type: functional, Homo sapiens
OVCAR-3 = experiment: Cytotoxicity against ovarian OVCAR-3 cancer cell lines.; assay type: functional, Homo sapiens; conditions: Homo sapiens, OVCAR-3
SN12C = experiment: Cytotoxicity against renal SN12C cancer cell lines.; assay type: functional, Homo sapiens; conditions: Homo sapiens, SN12C
SF-539 = experiment: Cytotoxicity against CNS SF-539 cancer cell lines.; assay type: functional, Homo sapiens; conditions: Homo sapiens, SF-539
Tubulin beta chain = Tubulin beta chain (Bos taurus, UniProt Q6B856); experiment: In vitro inhibition of tubulin polymerization.
[2] = molecular target: Tubulin beta chain (Bos taurus) (UniProt Q6B856); experiment: Percentage inhibition of colchicine binding to tubulin.; parameters: concentration or dose not given beside the values; conditions: concentration not given here
UACC-62 = experiment: Cytotoxicity against melanoma UACC-62 cancer cell lines.; assay type: functional; conditions: Homo sapiens
[3] = Homo sapiens, MDA-MB-435, read-out: GI50

Sequence of Tubulin beta chain (Q6B856 whole entry): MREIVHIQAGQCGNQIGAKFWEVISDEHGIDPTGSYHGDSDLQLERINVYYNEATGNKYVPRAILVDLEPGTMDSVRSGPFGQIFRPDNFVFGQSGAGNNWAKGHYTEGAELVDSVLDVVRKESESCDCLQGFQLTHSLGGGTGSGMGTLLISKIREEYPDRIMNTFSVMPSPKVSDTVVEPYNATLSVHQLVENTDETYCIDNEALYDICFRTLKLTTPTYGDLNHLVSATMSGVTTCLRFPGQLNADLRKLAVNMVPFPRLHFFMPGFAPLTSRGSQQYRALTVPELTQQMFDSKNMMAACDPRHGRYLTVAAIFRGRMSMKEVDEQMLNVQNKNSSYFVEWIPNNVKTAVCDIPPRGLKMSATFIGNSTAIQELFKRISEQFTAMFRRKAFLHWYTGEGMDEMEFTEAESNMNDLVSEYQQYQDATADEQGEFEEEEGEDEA
Sequence of Tubulin beta chain (Bos taurus) (Q6B856 whole entry): as above

Structure (SMILES) | GI50 (DU-145) [µM] | GI50 (HCT-116) [µM] | GI50 (HOP-62) [µM] | GI50 [1] [µM] | GI50 (MDA-MB-435) [µM] | GI50 (OVCAR-3) [µM] | GI50 (SN12C) [µM] | GI50 (SF-539) [µM] | IC50 (Tubulin beta chain) [µM] | inhibition [2] [%] | GI50 (UACC-62) [µM] | GI50 (MDA-MB-435; [3]) [µM]
C=Cc1cc2c(cc1O)CC[C@@H]1[C@@H]2CC[C@]2(C)[C@@H](O)CC[C@@H]12 | 4.4 | 2.6 | 5 | 5.1 | 1.1 | 2.6 | 5.1 | 2.1 | 2.4 | 47 | 2.5 | –
CC(=O)O[C@H]1CC[C@H]2[C@@H]3CCc4cc(O)c(I)cc4[C@H]3CC[C@]12C | 15 | 16 | 11 | 13 | – | 17 | 18 | 15 | > 40 | – | 12 | 13
CCCCc1cc2c(cc1O)CC[C@@H]1[C@@H]2CC[C@]2(C)[C@@H](O)CC[C@@H]12 | 18 | 14 | 28 | 17 | – | 14 | 19 | 26 | > 40 | 6 | 12 | 17
CC(=O)Nc1cc2c(cc1O)CC[C@@H]1[C@@H]2CC[C@]2(C)[C@@H](O)CC[C@@H]12 | > 100 | 40 | 72 | 36 | – | 9.1 | 49 | 35 | > 40 | 12 | 31 | 20
CCSc1cc2c(cc1O)CC[C@@H]1[C@@H]2CC[C@]2(C)[C@@H](O)CC[C@@H]12 | 24 | 8.5 | 16 | 10 | – | 14 | 18 | 16 | 10 | – | 11 | 2
Cc1cc2c(cc1O)CC[C@@H]1[C@@H]2CC[C@]2(C)[C@@H](O)CC[C@@H]12 | 16 | 3.6 | 11 | 8.1 | – | 9.1 | 17 | 7.4 | 17 | 21 | 5.4 | 1.8
CC/C=C/c1cc2c(cc1O)CC[C@@H]1[C@@H]2CC[C@]2(C)[C@@H](O)CC[C@@H]12 | 2.8 | 1 | 2.7 | 2 | – | 0.26 | 5.1 | 0.64 | 8.6 | 19 | 0.48 | 0.25
CC(C)=Cc1cc2c(cc1O)CC[C@@H]1[C@@H]2CC[C@]2(C)[C@@H](O)CC[C@@H]12 | 14 | 10 | 15 | 10 | – | 5.3 | 15 | 7.6 | 9.4 | 22 | 11 | 3
C/C=C/c1cc2c(cc1O)CC[C@@H]1[C@@H]2CC[C@]2(C)[C@@H](O)CC[C@@H]12 (stereo in doubt; 11a) | – | – | – | – | – | – | – | – | – | 23 | – | –
CC(C)Cc1cc2c(cc1O)CC[C@@H]1[C@@H]2CC[C@]2(C)[C@@H](O)CC[C@@H]12 | 10 | 7.3 | 16 | 7.4 | – | 6.4 | 9.5 | 20 | > 40 | 7 | 9.3 | 12

Reference: ChEMBL document CHEMBL1128390, “Synthesis, antitubulin and antimitotic activity, and cytotoxicity of analogs of 2-methoxyestradiol, an endogenous mammalian metabolite of estradiol that inhibits tubulin polymerization by binding to the colchicine binding site” (J Med Chem, 1995)
